Laboratory results as given in ChEMBL document CHEMBL3763076, “Novel 2-phenyl-5-[(E)-2-(thiophen-2-yl)ethenyl]-1,3,4-oxadiazole and 3-phenyl-5-[(E)-2-(thiophen-2-yl)ethenyl]-1,2,4-oxadiazole derivatives as dengue virus inhibitors targeting NS5 polymerase” (Eur J Med Chem, 2016).

Legend:
dengue virus type 3 [1] = assay: Antiviral activity against clinical isolates of Dengue virus 3 Bolivia 4025 infected in African green monkey Vero E6 cells assessed as reduction in viral RNA after 4 days by qRT-PCR method; type: functional, organism-based; conditions: Bolivia 4025, Vero, 96 h
dengue virus type 2 [2] = assay: Antiviral activity against clinical isolates of Dengue virus 2 Martinique H/IMTSSA-MART/98-703 infected in African green monkey Vero E6 cells assessed as reduction in viral RNA after 4 days by qRT-PCR method; type: functional, organism-based; conditions: Martinique H/IMTSSA-MART/98-703, Vero, 96 h
dengue virus type 4 [3] = assay: Antiviral activity against clinical isolates of Dengue virus 4 Martinique 017 infected in African green monkey Vero E6 cells assessed as reduction in viral RNA after 4 days by qRT-PCR method; type: functional, organism-based; conditions: Martinique 017, Vero, 96 h
dengue virus type 1 [4] = assay: Antiviral activity against clinical isolates of Dengue virus 1 Indonesia JKT 1186 TVP 949 infected in African green monkey Vero E6 cells assessed as reduction in viral RNA after 4 days by qRT-PCR method; type: functional, organism-based; conditions: Indonesia JKT 1186 TVP 949, Vero, 96 h
[5] = Cytotoxicity against African green monkey Vero E6 cells assessed as reduction in cell viability treated for 3 days measured on day 4 by cell titer-blue fluorescent assay; type: cell-based; conditions: chlorocebus sabaeus
dengue virus type 4 [6] = assay: Antiviral activity against clinical isolates of Dengue virus 4 Dakar HD34460 infected in African green monkey Vero E6 cells assessed as reduction in viral RNA after 4 days by qRT-PCR method; type: functional, organism-based; conditions: 96 h
dengue virus type 4 [7] = assay: Antiviral activity against clinical isolates of Dengue virus 4; type: functional, organism-based
dengue virus type 3 [8] = assay: Antiviral activity against clinical isolates of Dengue virus 3; type: functional, organism-based
dengue virus type 1 [9] = assay: Antiviral activity against clinical isolates of Dengue virus 1; type: functional, organism-based
dengue virus type 2 [10] = assay: Antiviral activity against clinical isolates of Dengue virus 2; type: functional, organism-based
[11] = Inhibition of Dengue virus 2 RdRp using homopolymeric uridine RNA as template assessed as reduction in RNA synthesis incubated for 10 mins by picogreen fluorescent assay; parameters: species or system dengue virus type 2

Structure (SMILES) | IC50 [11] [µM] | other results
C#C[C@@]1(O)[C@H](O)[C@@H](CO)O[C@H]1n1ccc2c(N)ncnc21 | – | EC50 (dengue virus type 3 [1]): 0.12 µM; EC50 (dengue virus type 2 [2]): 0.82 µM; EC50 (dengue virus type 4 [3]): 0.03 µM; EC50 (dengue virus type 1 [4]): 0.86 µM; CC50 at 72 h [5]: > 100 µM; EC50 (dengue virus type 4 [6]): 0.08 µM
O=C(/C=C/c1ccc(Br)s1)Nc1ccc(Cl)c(Cl)c1 | – | EC50 (dengue virus type 4 [7]): 0.04 µM; EC50 (dengue virus type 3 [8]): 0.04 µM; EC50 (dengue virus type 1 [9]): 0.04 µM; EC50 (dengue virus type 2 [10]): 0.04 µM
CN(C)c1ccc(-c2nnc(/C=C/c3ccc(Br)s3)o2)cc1 | 20 | –
COc1ccc(-c2nnc(/C=C/c3ccc(-c4ccccc4)s3)o2)cc1 | 22 | –
C(=C\c1ccc(-c2ccccc2)s1)/c1nnc(-c2ccccc2)o1 | 18.8 | –
FC(F)(F)c1ccc(-c2noc(/C=C/c3ccc(Br)s3)n2)cc1 | 21 | –
O=C(/C=C/c1ccc(-c2ccccc2)s1)Nc1cccc(Cl)c1 | – | EC50 (dengue virus type 4 [7]): 0.4 µM; EC50 (dengue virus type 3 [8]): 0.4 µM; EC50 (dengue virus type 1 [9]): 0.4 µM; EC50 (dengue virus type 2 [10]): 0.4 µM
Brc1cccc(-c2nnc(/C=C/c3ccc(-c4ccccc4)s3)o2)c1 | 53.9 | –
Fc1ccc(-c2nnc(/C=C/c3ccc(-c4ccccc4)s3)o2)cc1 | 17.4 | –
FC(F)(F)Oc1ccc(-c2noc(/C=C/c3ccc(Br)s3)n2)cc1 | 32.6 | –
O=C(/C=C/c1ccc([N+](=O)[O-])s1)Nc1ccc([N+](=O)[O-])cc1O | 1.3 | –
CN(C)c1ccc(-c2nnc(/C=C/c3ccc(-c4ccccc4)s3)o2)cc1 | 41.9 | –
Fc1cccc(-c2nnc(/C=C/c3ccc(Br)s3)o2)c1 | 16.3 | –
Fc1ccc(-c2nnc(/C=C/c3ccc(Br)s3)o2)cc1 | 16.3 | –
Clc1ccc(-c2nnc(/C=C/c3ccc(-c4ccccc4)s3)o2)cc1Cl | 24.3 | –
Brc1ccc(/C=C/c2nnc(-c3ccccc3)o2)s1 | 16.1 | –
O=c1cc(-c2ccc(Oc3c(O)cc4oc(-c5ccc(O)cc5)cc(=O)c4c3O)cc2)oc2cc(O)cc(O)c12 [HINOKIFLAVONE] | 0.45 | –
